Assay results: US5466815A, “Tetrazole derivatives of bile acids, and their use as lipid level lowering medicaments” (Hoechst Aktiengesellschaft, priority 1993, dated 1995)

Molecular target: T1, intestinal bile acid transportation system (Na^+ -dependent) in brush border membrane vesicles of the ileum (Oryctolagus cuniculus, UniProt Q28727)
T1 construct: Brush border membrane vesicles were prepared from the intestinal cells of the small intestine; from tissue; host or cells: brush border membrane vesicles from the terminal 7/10 of the small intestine (ileum) of male New Zealand rabbits
T1 sequence (Q28727 1-347): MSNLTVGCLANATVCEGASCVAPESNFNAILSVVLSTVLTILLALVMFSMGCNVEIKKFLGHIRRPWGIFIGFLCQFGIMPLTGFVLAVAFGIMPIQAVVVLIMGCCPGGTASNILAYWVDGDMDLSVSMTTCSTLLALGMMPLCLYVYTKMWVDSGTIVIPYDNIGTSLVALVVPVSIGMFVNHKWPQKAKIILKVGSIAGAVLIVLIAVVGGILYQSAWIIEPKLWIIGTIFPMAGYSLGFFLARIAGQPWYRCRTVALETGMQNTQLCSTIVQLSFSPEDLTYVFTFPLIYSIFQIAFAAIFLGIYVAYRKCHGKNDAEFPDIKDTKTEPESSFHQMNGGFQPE
Experiment: Inhibition of [^3 H]-taurocholate uptake in brush border membrane vesicles of the ileum of rabbits
Format: biochemical, rabbit
Conditions: 50 μM taurocholate, usually 1 minute; for IC50Na TCDC / IC50Na -substance: quotient of IC50Na of reference taurochenodeoxycholate (TCDC) and IC50Na of test substance, Na^+ -dependent transportation content (Na-T-B minus K-T-B); for IC50 -TCDC / IC50 -substance: quotient of IC50 of reference taurochenodeoxycholate (TCDC) and IC50 of test substance, [^3 H]-taurocholate uptake
Method: The compounds according to the invention were tested biologically by determination of the inhibition of [^3 H]-taurocholate uptake in brush border membrane vesicles of the ileum of rabbits. The inhibition test was carried out as follows:
1. Preparation of Brush Border Membrane Vesicles from the Ileum of Rabbits
Brush border membrane vesicles were prepared from the intestinal cells of the small intestine by the so-called Mg^2+ precipitation method. Male New Zealand rabbits (2 to 2.5 kg bodyweight) were sacrificed by intravenous injection of 0.5 ml of an aqueous solution of 2.5 mg Tetracain HCl, 100 T61^R and 25 mg of mebezonium iodide. The small intestine was rinsed with ice-cold physiological saline solution. The terminal […] of the small intestine (measured in the oral-rectal direction, i.e. the terminal ileum, which contains the active Na^+ -dependent bile acid transportation system) was used for preparation of the brush border membrane vesicles. The intestines were frozen in plastic bags under nitrogen at -80° C. For preparation of the membrane vesicles, the frozen intestines were […] at 30° C. in a water-bath. The mucosa was scraped off and suspended in 60 ml of ice-cold 12 mM Tris/HCl buffer (pH 7.1)/300 mM mannitol, 5 mM EGTA/10 mg/l of phenylmethylsulfonylfluoride/1 mg/l of trypsin inhibitor for soya beans (32 U/mg)/0.5 mg/l of trypsin inhibitor from bovine lung (193 U/mg)/5 mg/l of bacitracin. After dilution to 300 ml with ice-cold distilled water, the mixture was homogenized with an Ultraturrax (18-rod, IKA Werk Staufen, FRG) for 3 minutes at 75 % of the maximum power, while cooling with ice. After addition of 3 ml of 1M MgCl2 solution (final concentration 10 mM), the mixture was left to stand at 0° C. for exactly 1 minute. By addition of Mg^2+, the cell membranes aggregate and precipitate, with the exception of the brush border membranes. After centrifugation at 3000×g (5000 revolutions per minute, SS-34 rotor) for 15 minutes, the precipitate is discarded and the supernatant, which contains the brush border membranes, was centrifuged at […] (15000 revolutions per minute, SS-34 rotor) for 30 minutes. The supernatant was discarded and the precipitate was rehomogenized in 60 ml of 12 mM tris/HCl buffer (pH 7.1)/60 mM mannitol, 5 mM EGTA using a Potter Elvejhem homogenizer (Braun, Melsungen, 900 revolutions per minute, 10 strokes). After addition of 0.1 ml of 1M MgCl2 solution and an incubation time of 15 minutes at 0° C., the mixture was centrifuged again at 3000×g for 15 minutes. The supernatatant was then centrifuged again at 46000×g (15000 revolutions per minute, SS-34 rotor) for 30 minutes. The precipitate was taken up in 30 ml of 10 mM Tris/Hepes buffer (pH 7.4)/300 mM mannitol and resuspended homogeneously by 20 strokes in a Potter Elvejhem homogenizer at 1000 revolutions per minute. After centrifugation at 48000×g (20000 revolutions per minute, SS-34 rotor) for 30 minutes, the precipitate was taken up in 0.5 to 2 ml of Tris/Hepes buffer (pH 7.4)/280 mM mannitol (final concentration 20 mg/ml) and resuspended with the aid of a tuberculin syringe with a 27 gauge needle. The vesicles were either used for transportation studies immediately after preparation or stored at -196° C. in 4 mg portions in liquid nitrogen.
2. Inhibition of the Na^+ -dependent [^3 H]-taurocholate Uptake in the Brush Border Membrane Vesicles of the Ileum
The uptake of substrates into the brush border membrane vesicles described above was determined by means of the so-called membrane filtration technique. 10 μl of the vesicle suspension (100 μg of protein) were pipetted as drops onto the wall of a polystyrene incubation tube (11×70 mm) which contained the incubation medium with the corresponding ligands (90 μl). […]

SMILES	IC50Na TCDC / IC50Na -substance	IC50 -TCDC / IC50 -substance
C[C@H](Cc1nn[nH]n1)[C@H]1CC[C@H]2[C@@H]3[C@H](O)C[C@@H]4C[C@H](O)CC[C@]4(C)[C@H]3C[C@H](O)[C@]12C [Example 4]	0.38	0.28
CC(CCCc1nn[nH]n1)C1CCC2C3C(O)CC4CC(O)CCC4(C)C3CC(O)C12C (centres unmarked) [Example 14]	1.35	1.20
C[C@H](CCCc1nn[nH]n1)[C@H]1CC[C@H]2[C@@H]3[C@H](O)C[C@@H]4C[C@@H](OCCO)CC[C@]4(C)[C@H]3C[C@H](O)[C@]12C [Example 16]	0.25	0.26
C[C@H](CCC(=O)N[C@H]1CC[C@@]2(C)[C@@H](C1)C[C@@H](O)[C@@H]1[C@@H]2C[C@H](O)[C@]2(C)[C@@H]([C@H](C)CCC(=O)Nc3nn[nH]n3)CC[C@@H]12)[C@H]1CC[C@H]2[C@@H]3[C@H](O)C[C@@H]4C[C@H](O)CC[C@]4(C)[C@H]3C[C@H](O)[C@]12C [Example 22]	1.35	1.66
C[C@H](CCC(=O)Nc1nn[nH]n1)[C@H]1CC[C@H]2[C@@H]3[C@H](O)C[C@@H]4C[C@H](O)CC[C@]4(C)[C@H]3C[C@H](O)[C@]12C [Example 24]	1.27	0.97
C[C@H](CCC(=O)NCCO[C@H]1CC[C@@]2(C)[C@@H](C1)C[C@@H](O)[C@@H]1[C@@H]2C[C@H](O)[C@]2(C)[C@@H]([C@H](C)CCCc3nn[nH]n3)CC[C@@H]12)[C@H]1CC[C@H]2[C@@H]3[C@@H](O)C[C@@H]4C[C@H](O)CC[C@]4(C)[C@H]3CC[C@]12C [Example 27]	0.25	0.26
C[C@H](CCC(=O)NCc1nn[nH]n1)[C@H]1CC[C@H]2[C@@H]3[C@H](O)C[C@@H]4C[C@H](O)CC[C@]4(C)[C@H]3C[C@H](O)[C@]12C [Example 29]	0.48	0.46
